Assay results published in ChEMBL document CHEMBL3988442, “University of Dundee, Small-Polar-MMV Screening Library” (2021).

Experiments:
ClpP1P2 = ClpP1P2 (Mycobacterium tuberculosis (strain ATCC 25618 / H37Rv), UniProt P9WPC3+P9WPC5); assay: in vitro assay to detect presence of AMC directly proportional to the activity of ClpP1P2. GHDDI collaboration.; format: functional
[1] = microbe, parasite or virus in culture; settings: Mycobacterium tuberculosis, 96 h, read-out: pIC50 (converted)
Plasmodium falciparum = assay: Calibr Malaria Delayed Death Assay SOP; format: functional, organism-based; settings: for IC50: Plasmodium falciparum
[2] = microbe, parasite or virus in culture; settings: Mycobacterium tuberculosis, 72 h, read-out: pIC50 (converted)

Chain of ClpP1P2 (P9WPC5 whole entry): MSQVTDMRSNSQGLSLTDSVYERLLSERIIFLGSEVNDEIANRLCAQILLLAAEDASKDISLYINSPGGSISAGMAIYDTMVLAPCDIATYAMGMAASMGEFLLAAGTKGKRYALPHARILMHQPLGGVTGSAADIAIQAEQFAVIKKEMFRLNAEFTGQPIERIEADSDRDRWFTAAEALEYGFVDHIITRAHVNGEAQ
Chain of ClpP1P2 (P9WPC3 whole entry): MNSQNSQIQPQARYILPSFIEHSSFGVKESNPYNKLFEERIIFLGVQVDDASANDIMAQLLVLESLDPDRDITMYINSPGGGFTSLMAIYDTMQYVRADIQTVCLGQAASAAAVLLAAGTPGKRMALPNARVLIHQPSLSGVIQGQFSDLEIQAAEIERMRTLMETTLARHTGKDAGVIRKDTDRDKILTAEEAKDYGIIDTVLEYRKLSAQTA

For `NC(=O)CC1CCCN(c2cncc(OCc3ccccc3)n2)C1` (stereo not drawn), the IC50 (ClpP1P2) was > 100 µM.
In the case of `NC(=O)CC1CCCN(c2cncc(SCc3ccccc3)n2)C1` (stereo not drawn), the IC50 (ClpP1P2) is reported as > 100 µM.
For `CCOC(=O)CN(CC(F)(F)F)C(=O)c1nc(C)n2ccccc12`, the IC50 (ClpP1P2) was > 100 µM.
With `Cc1nc(C(=O)N(CC(=O)N(C)C)CC(F)(F)F)c2ccccn12` the IC50 (ClpP1P2) was > 100 µM.
In the case of `CCNC(=O)C1CCCN(c2ccc3ccc(F)cc3n2)C1` (stereo not drawn), the IC50 (ClpP1P2) is reported as > 100 µM.
With `NC(=O)CCC1CCCN(c2ccc3ccc(F)cc3n2)C1` (stereo not drawn) the IC50 (ClpP1P2) was > 100 µM.
In the case of `Nc1nccnc1C(=O)NC1CCN(Cc2ccccc2)C1` (stereo not drawn), the IC50 (ClpP1P2) is reported as > 100 µM.
For `COc1ncc(NCc2ccsc2)cc1C(N)=O`, the IC50 (ClpP1P2) was > 100 µM.
With `COc1ncc(NCc2cc(C#N)cs2)cc1C(N)=O` the IC50 (ClpP1P2) was > 100 µM.
For `COc1ncc(NCc2ccc(F)cc2)cc1C(N)=O`, the IC50 (ClpP1P2) was > 100 µM.
For `CCN(CC)c1nc2sc(C(=O)N3CCNC(=O)C3)cc2s1`, the IC50 (ClpP1P2) was > 100 µM.
With `CN(C)c1nc2sc(C(=O)N3CCNC(=O)CC3)cc2s1` the IC50 (ClpP1P2) was > 100 µM.
With `CC1CCC(NC(=O)CNC2(c3ccc(Br)cc3)CCOCC2)CC1` (stereo not drawn) the IC50 (ClpP1P2) was > 100 µM.
With `COC(=O)N1CCC(Nc2ccc(Cl)c(C#N)n2)CC1` the IC50 (ClpP1P2) was > 100 µM.
For `Cc1nn(C)c(C)c1C(=O)NCc1cc(N(C)C)nc2ccccc12`, the IC50 (ClpP1P2) was > 100 µM.
With `COC(=O)c1cc(OC)ccc1NCC(=O)NCC(=O)N1CCCC1` the IC50 (ClpP1P2) was > 100 µM.
For `N#Cc1cccnc1N1CCC(OCc2ccccc2)CC1`, the IC50 (ClpP1P2) was > 100 µM.
With `Cc1cccc(CNc2cncc(-n3cccn3)n2)c1` the IC50 (ClpP1P2) was > 100 µM.
In the case of `Fc1cccc(CNc2cncc(-n3cccn3)n2)c1`, the IC50 (ClpP1P2) is reported as > 100 µM.
With `Cc1cc(C)n(-c2cncc(NCCNC(=O)C3CCCC3)n2)n1` the IC50 (ClpP1P2) was > 100 µM.
In the case of `Cc1cc(C)n(-c2cncc(NCCNC(=O)C(C)(C)C)n2)n1`, the IC50 (ClpP1P2) is reported as > 100 µM.
For `CCC(=O)N1CCCN(c2cncc(-n3nc(C)cc3C)n2)CC1`, the IC50 (ClpP1P2) was > 100 µM.
With `Cc1noc(CN(CCc2cccs2)Cc2cccc(C#N)c2)n1` the IC50 (ClpP1P2) was > 100 µM.
For `Cc1ccc(CNCc2cccc3cccnc23)c(OC2CCOC2)c1` (stereo not drawn), the IC50 [1] was > 50.1 µM, the pIC50 (Plasmodium falciparum) was 6.31 and the IC50 (Plasmodium falciparum) was 0.619 µM. For the same molecule, the IC50 [2] was > 50.1 µM.
In the case of `CC(C)n1c2ccccc2c2c1cc(C(=O)NCCO)n2C(=O)N(C)C`, the IC50 (ClpP1P2) is reported as > 100 µM.
With `CC(C)n1c2ccccc2c2c1cc(C(=O)NC1CC1)n2C(=O)N(C)C` the IC50 (ClpP1P2) was > 100 µM.
In the case of `Cn1cnc(-c2nc(C(=O)NCC3CCCO3)c3ccccn23)c1` (stereo not drawn), the IC50 (ClpP1P2) is reported as > 100 µM.
For `CC(Nc1nc(-c2ccccc2)nc2c1CCNCC2)c1cccnc1` (stereo not drawn), the IC50 [1] was 28 µM, the pIC50 (Plasmodium falciparum) was 5.884 and the IC50 (Plasmodium falciparum) was 1.46 µM. It also gave an IC50 [2] of 27.6 µM.
With `CC1CCCCN1C(=O)c1coc(COc2cccc3cnccc23)n1` (stereo not drawn) the IC50 [1] was 24.4 µM, the pIC50 (Plasmodium falciparum) was 6.214 and the IC50 (Plasmodium falciparum) was 0.616 µM. It also gave an IC50 [2] of 44 µM.
In the case of `c1ccc(-c2nc3c(c(NCc4n[nH]c5c4CCC5)n2)CCNC3)cc1`, the IC50 [1] is reported as 46.1 µM, the pIC50 (Plasmodium falciparum) is reported as 6.219 and the IC50 (Plasmodium falciparum) is reported as 0.902 µM. It also gave an IC50 [2] of 25.7 µM.
For `COc1ccc2[nH]c(CNc3cc(C4CCNCC4)nc(C)n3)cc2c1`, the IC50 [1] was 12.4 µM, the pIC50 (Plasmodium falciparum) was 5.758 and the IC50 (Plasmodium falciparum) was 1.83 µM. For the same molecule, the IC50 [2] was 14.3 µM.
`CCc1[nH]c2c(CNc3cc(C)nc(NC)n3)cc(C)cc2c1C` gave an IC50 [1] of 40.3 µM, a pIC50 (Plasmodium falciparum) of 6.096 and an IC50 (Plasmodium falciparum) of 0.75 µM. For the same molecule, the IC50 [2] was 35.7 µM.
`CCc1cnc(N)nc1NC(C)c1ccc(C)c(C)c1` (stereo not drawn) gave an IC50 [1] of 44.1 µM, a pIC50 (Plasmodium falciparum) of 6.042 and an IC50 (Plasmodium falciparum) of 0.893 µM. The IC50 [2] was 23.8 µM.
For `O=C(CCN1CCCC(CO)(CC2CC2)C1)NCc1cccc(Cl)c1` (stereo not drawn), the IC50 [1] was > 50.1 µM, the pIC50 (Plasmodium falciparum) was 5.764 and the IC50 (Plasmodium falciparum) was 1.32 µM. The IC50 [2] was > 50.1 µM.
With `CCCn1ccnc1CN1CCCC1c1ccccn1` (stereo not drawn) the IC50 [1] was > 50.1 µM, the pIC50 (Plasmodium falciparum) was 6.456 and the IC50 (Plasmodium falciparum) was 0.395 µM. The IC50 [2] was > 50.1 µM.
In the case of `Cc1nc(-c2cc(Cl)cc3c2OC(CN)C3)c[nH]1` (stereo not drawn), the IC50 [1] is reported as > 50.1 µM, the pIC50 (Plasmodium falciparum) is reported as 6.207 and the IC50 (Plasmodium falciparum) is reported as 0.655 µM. The IC50 [2] was 13.6 µM.
Work on `Cc1nc(-c2cc(Cl)c3c(c2)CC(CN)O3)c[nH]1` (stereo not drawn) yielded an IC50 [1] of 8.33 µM, a pIC50 (Plasmodium falciparum) of 5.986 and an IC50 (Plasmodium falciparum) of 1.39 µM. It also gave an IC50 [2] of 2.58 µM.
Molecule `c1ccc(C2CN(C3CC3)CC3(CCN(Cc4cscn4)CC3)C2)cc1` (stereo not drawn) has an IC50 [1] of 25.7 µM, a pIC50 (Plasmodium falciparum) of 6.129 and an IC50 (Plasmodium falciparum) of 0.969 µM. The IC50 [2] was 26.1 µM.
In the case of `COCCN(C)Cc1cc(Cl)ccc1OCC(O)CN1CCCCCC1` (stereo not drawn), the IC50 [1] is reported as 12.4 µM, the pIC50 (Plasmodium falciparum) is reported as 6.019 and the IC50 (Plasmodium falciparum) is reported as 0.953 µM. The IC50 [2] was > 50.1 µM.
For `CC(C)c1nn(C)c(Cl)c1CNCC(=O)N1CCN(C)CC1`, the IC50 (ClpP1P2) was > 100 µM.
With `Cc1ccc(CN2C[C@@H]3[C@@H](C(=O)N4CCCC4)CCS(=O)(=O)[C@@H]3C2)cc1` the IC50 (ClpP1P2) was > 100 µM.
In the case of `Cc1nc(-c2cc(C(=O)N3CCCN(C)CC3)c3ccccn23)cn1C`, the IC50 (ClpP1P2) is reported as > 100 µM.
In the case of `CC(C)n1ccc(-c2cc(C(=O)N3CCN(C)CC3)c3ccccn23)n1`, the IC50 (ClpP1P2) is reported as > 100 µM.
For `Cc1ccc(CN2CCC3(C2)C(=O)N(CC2CC2)c2ccccc23)s1` (stereo not drawn), the IC50 (ClpP1P2) was > 100 µM.
For `O=C(c1ccc2ccccc2n1)N1CCC2(CCN2c2ncccn2)C1` (stereo not drawn), the IC50 (ClpP1P2) was > 100 µM.
In the case of `COCCNC(=O)c1cc(-c2cc[nH]n2)n2ccccc12`, the IC50 (ClpP1P2) is reported as > 100 µM.
In the case of `Cc1nc(-c2cc(C(=O)NCCN3CCOCC3)c3ccccn23)cs1`, the IC50 (ClpP1P2) is reported as > 100 µM.
For `O=C(NCCCO)c1cc(-c2cc[nH]n2)n2ccccc12`, the IC50 (ClpP1P2) was > 100 µM.
With `CN1CCCN(C(=O)c2cc(-c3cc[nH]n3)n3ccccc23)CC1` the IC50 (ClpP1P2) was > 100 µM.
For `CNC(=O)c1cc2c(nc1NCC(C)C)CCN(CCOC)CC2`, the IC50 (ClpP1P2) was > 100 µM.
For `CNC(=O)c1cc2c(nc1NCC(C)C)CCN(C)CC2`, the IC50 (ClpP1P2) was > 100 µM.
For `COCCN1CCc2cc(C(=O)NC(C)C)c(NCC(C)C)nc2CC1`, the IC50 (ClpP1P2) was > 100 µM.
In the case of `COCCN1CCc2cc(C(=O)NC(C)C)c(NCC3CC3)nc2CC1`, the IC50 (ClpP1P2) is reported as > 100 µM.
In the case of `CNC(=O)c1cc2c(nc1NCC1CC1)CCN(CC1CC1)CC2`, the IC50 (ClpP1P2) is reported as > 100 µM.
